What was measured:
[1] = compound: N[C@@H]1CCCN(c2c(/C=C3\SC(=O)NC3=O)cccc2-c2ccccc2)C1 [AZD1208] + COc1cc2c(Oc3ccc(NC(=O)C4(C(=O)Nc5ccc(F)cc5)CC4)cc3F)ccnc2cc1OCCCN1CCOCC1 [Foretinib] (partner 0.25 µM); assay: relative viability (nuclei count vs DMSO), 5 days (fraction); higher = more cells survive
How it was run: (§1)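 The day after seeding in 1536-well plates, lung cancer cell lines were treated by pin tool with a single drug, or with a fixed anchor-drug dose together with five library-drug doses (not always all listed) in √10 steps. After 5 days, a combined fix-and-stain solution (final 0.05% Triton X-100, 1% formaldehyde, 1 ug/ml Hoechst) was added. Nuclei counted on 4× images gave relative viability as treated counts over vehicle counts, reported as the median of duplicate plates.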

[2] = compound: CN1CCN(CC1)C2=CC(=C(C=C2)NC3=NC(=C(S3)C(=O)C4=C(C=CC=C4Cl)Cl)N)OC [XMD14-99] + CC1(C)CCC(c2ccc(Cl)cc2)=C(CN2CCN(c3ccc(C(=O)NS(=O)(=O)c4ccc(N[C@H](CCN5CCOCC5)CSc5ccccc5)c(S(=O)(=O)C(F)(F)F)c4)cc3)CC2)C1 [Navitoclax] (partner 0.5 µM); assay: as above
How it was run: as §1

| Cell Line | relative viability ([1]; first compound 0.08 µM) | relative viability ([1]; first compound 0.253 µM) | relative viability ([1]; first compound 0.8 µM) | relative viability ([1]; first compound 2.53 µM) | relative viability ([1]; first compound 8 µM) | relative viability ([2]; first compound 0.08 µM) | relative viability ([2]; first compound 0.8 µM) | relative viability ([2]; first compound 2.53 µM) | relative viability ([2]; first compound 8 µM) |
| --- | --- | --- | --- | --- | --- | --- | --- | --- | --- |
| NCI-H661 | 0.979 | 1.15 | 1.04 | 0.994 | 0.951 | – | – | – | – |
| NCI-H1650 | 1.08 | 0.993 | 1.17 | 1.05 | 1.1 | 1.15 | 1.44 | 0.992 | 1.04 |
| NCI-H2087 | 1.17 | 1.26 | 0.89 | 0.977 | 0.988 | 0.964 | 0.897 | 0.632 | 0.463 |
| NCI-H1793 | 0.578 | 0.653 | 0.545 | 0.749 | 0.631 | 0.424 | 0.411 | 0.461 | 0.386 |
| LC-2-ad | 0.903 | 0.924 | 0.871 | 0.85 | 0.912 | 0.533 | 0.386 | 0.273 | 0.295 |
| COR-L 105 | 0.849 | 1.09 | 1.05 | – | 1 | 0.776 | 0.724 | 0.842 | 0.767 |
| NCI-H1355 | 0.973 | 1 | 0.878 | 0.84 | 0.784 | 0.87 | 0.863 | 0.782 | 0.778 |
| H3255 | 0.919 | 0.867 | 0.65 | 0.954 | 0.932 | 0.542 | 0.654 | 0.493 | 0.32 |
| NCI-H2009 | 1.23 | 1.2 | 1.14 | 1.26 | 1.16 | 1.15 | 1.1 | 1.03 | 0.999 |
| NCI-H1734 | 0.773 | 0.814 | 0.738 | 0.755 | 0.56 | 0.805 | 0.816 | 0.765 | 0.654 |
| HOP-62 | 1.03 | 1.16 | 1.02 | 1.03 | 1.06 | 1.12 | 1.16 | 1.03 | 0.951 |
| LOU-NH91 | 0.943 | 0.876 | 0.874 | 0.93 | 0.909 | 0.662 | 0.758 | 0.685 | 0.613 |
| ChaGo-K-1 | 0.855 | 0.903 | 0.808 | 0.875 | 0.73 | 1.05 | 1.06 | 0.908 | 0.745 |
| NCI-H23 | 0.914 | 0.648 | 0.9 | 0.967 | 0.748 | 0.782 | 0.874 | 0.744 | 0.748 |
| PC-3 [JPC-3] | 1.11 | 1.06 | 1.14 | 1.13 | 1.04 | 0.794 | 0.756 | 0.768 | 0.667 |
| NCI-H1437 | 1.31 | 1.17 | 1.36 | 1.42 | 1.42 | 1.06 | 1 | 0.913 | 0.629 |
| NCI-H520 | 0.746 | 0.754 | 0.656 | 0.612 | 0.396 | 0.992 | 1.1 | 1.12 | 1.01 |
| NCI-H1666 | 0.906 | 1 | 0.953 | 0.954 | 0.975 | 0.994 | 0.771 | 0.797 | 0.566 |
| NCI-H1651 | 0.637 | 0.827 | 0.665 | 0.768 | 0.588 | 0.982 | 1.04 | 0.933 | 0.943 |

| Cell Line | relative viability ([1]; first compound 0.08 µM) | relative viability ([1]; first compound 0.253 µM) | relative viability ([1]; first compound 0.8 µM) | relative viability ([1]; first compound 2.53 µM) | relative viability ([1]; first compound 8 µM) | relative viability ([2]; first compound 0.08 µM) | relative viability ([2]; first compound 0.8 µM) | relative viability ([2]; first compound 2.53 µM) | relative viability ([2]; first compound 8 µM) |
| --- | --- | --- | --- | --- | --- | --- | --- | --- | --- |
| NCI-H1755 | 0.908 | 0.892 | 0.851 | 0.861 | 0.787 | 1.02 | 0.972 | 0.926 | 0.809 |
| NCI-H727 | 0.843 | 0.938 | 0.737 | 0.533 | 0.781 | 0.399 | 0.349 | 0.339 | 0.219 |
| HARA | 0.905 | 0.709 | 0.827 | 0.539 | 0.804 | 1.15 | 1.18 | 1.17 | 1.02 |
| NCI-H647 | 1.07 | 1.25 | 1.04 | 1.16 | 0.897 | 1.08 | 1.19 | 1.16 | 0.974 |
| NCI-H1563 | 1.07 | 1.02 | 0.919 | 0.994 | 0.908 | – | – | – | – |
| NCI-H2347 | 0.867 | 0.671 | 0.987 | 0.917 | 0.742 | 0.736 | 0.825 | 0.699 | 0.488 |
| A549 | 0.808 | 1.05 | 0.824 | 0.927 | 0.708 | 1.14 | 1.13 | 1.03 | 0.724 |
| LCLC-97TM1 | 0.914 | 0.945 | 1.03 | 0.891 | 0.8 | 0.43 | 0.455 | 0.268 | 0.382 |
| EPLC-272H | 0.714 | 0.71 | 0.618 | 0.564 | 0.478 | 1.14 | 1.1 | 1.29 | 1.11 |
| NCI-H1915 | 1.12 | 1.09 | 1.11 | 1.11 | 1.03 | 0.833 | 0.761 | 0.742 | 0.737 |
| NCI-H3122 | 0.991 | 1.05 | 0.924 | 1.08 | 0.945 | 0.989 | 0.945 | 0.902 | 0.724 |
| NCI-H441 | 1.1 | 0.761 | 0.764 | 0.712 | 0.718 | 0.575 | 0.556 | 0.724 | 0.569 |
| NCI-H2170 | 1.07 | 1.07 | 1.08 | 1.03 | 0.878 | 0.574 | 0.594 | 0.644 | 0.603 |
| NCI-H1623 | 0.838 | 0.763 | 0.801 | 0.837 | 0.771 | – | – | – | – |
| SW 900 | 0.817 | 0.807 | 0.691 | 0.947 | 0.923 | – | – | – | – |
| NCI-H1395 | 0.988 | 1 | 1.01 | 0.97 | 0.959 | 1.06 | 1.11 | 1.09 | 0.902 |
| IA-LM | 1.07 | 1.09 | 0.924 | 1.14 | 1.05 | 0.732 | 0.56 | 0.449 | 0.295 |
| NCI-H358 | 0.594 | 0.692 | 0.573 | 0.698 | 0.522 | – | – | – | – |
| PC-14 | 1.02 | 1.06 | 1.06 | 1.04 | 0.999 | 0.983 | 0.902 | 0.943 | 0.726 |
